According to patent US20170198359A1, “METHODS AND COMPOSITIONS FOR TREATMENT OR DIAGNOSIS OF CANCERS RELATED TO GABRA3” (The Wistar Institute of Anatomy and Biology, priority 2016, published 2017):
“Also recorded” adds a separate entry of the source.

What was measured:
melanoma = melanoma treatment, clinical trials; cited from earlier work
MDA-MB-436 cells [1] = test: Boyden chamber migration assay, MDA-MB-436 cells with GABRA3 inhibitors; type: cell-based, human; conditions: various concentrations (10 nM-10 μM), FIG. 12
Method: (§1) MDA-MB-436 cells were treated with GABRA3 inhibitors picrotoxin or flumazenil at various concentrations (10 nM-10 μM). Cells were then subjected to Boyden chamber assays (see, e.g., Ostrander et al, Cancer Res May 1, 2007 67; 4199, which is incorporated herein by reference).

MDA-MB-436 cells [2] = test: Boyden chamber invasion assay, MDA-MB-436 cells with GABRA3 inhibitors; type: cell-based, human; conditions: various concentrations (10 nM-10 μM), FIG. 12
Method: as §1

[3] = tested on: MCF7 cells stably expressing GABRA3; test: Transwell migration assay, MCF7-GABRA3 cells with AKT inhibitor; type: cell-based, human; conditions: different concentrations of the inhibitor vs control DMSO, FIG. 11A
Method: (§2) In vitro cell migration assays were performed as described previously (21, 22) using Trans-well chambers ([…] pore size; Costar). Cells were allowed to grow to subconfluency (˜75-80%) and were serum-starved for 24 h. After detachment with trypsin, cells were washed with PBS, resuspended in serum-free medium and 250 μl cell suspensions (2×10^5 cells ml−1) was added to the upper chamber. Complete medium was added to the bottom wells of the chambers. The cells that had not migrated were removed from the upper face of the filters using cotton swabs, and the cells that had migrated to the lower face of the filters were fixed with 5% glutaraldehyde solution and stained with 0.5% solution of Toluidine Blue in 2% sodium carbonate. Images of three random ×10 fields were captured from each membrane and the number of migratory cells was counted. […]
(§3) It has previously been shown that A-to-I edited GABRA3 affected the intracellular trafficking of GABRA3 (18), which is critical for the localization of GABRA3 on cell membrane. We determined the expression of GABRA3 on cell surface of breast cancer cells using FACS analysis. […] Since AKT pathway is critical in both breast cancer metastasis and therapy resistance (27-29), we determined the effect of GABRA3 on AKT activation and whether AKT pathway mediates GABRA3 functions in migration and invasion. […]

[4] = tested on: MCF7 cells stably expressing GABRA3; test: Matrigel invasion assay, MCF7-GABRA3 cells with AKT inhibitor; type: cell-based, human; conditions: different concentrations of the inhibitor vs control DMSO, FIG. 11B
Method: as §2, §3

Molecule	anti-tumor activity (melanoma)	cell migration (MDA-MB-436 cells [1])	cell invasion (MDA-MB-436 cells [2])	cell migration [3]	cell invasion [4]
Nc1nc2ccc(OC(F)(F)F)cc2s1 [Riluzole]	significant anti-tumor activity				
picrotoxin		suppress	suppress		
CCOC(=O)c1ncn2c1CN(C)C(=O)c1cc(F)ccc1-2 [flumazenil]		suppress	suppress		
NC1(c2ccc(-c3nc4ccn5c(=O)[nH]nc5c4cc3-c3ccccc3)cc2)CCC1 [MK-2206]				inhibited cell migration and invasion in a dose-dependent manner; also recorded: suppressed	inhibited cell migration and invasion in a dose-dependent manner; also recorded: suppressed
